Data from patent US10870647B2, “Imidazopyridine derivative, method for preparing same, and pharmaceutical composition containing same as active ingredient for preventing or treating cancer” (DAEGU-GYEONGBUK MEDICAL INNOVATION FOUNDATION, priority 2016, dated 2020).

Columns and labels:
Experiment in all cases: Kinase selectivity, scanMAX Kinase assay panel (DiscoverX), % control at 1 uM
Type in all cases: binding
[1] = target: T1, scanMAX Kinase assay panel (Homo sapiens, UniProt P23443); settings: S6K1; 1 uM; read-out: Percent Control (%)
T1 construct: purchased DiscoverX
T1 sequence (P23443 whole entry): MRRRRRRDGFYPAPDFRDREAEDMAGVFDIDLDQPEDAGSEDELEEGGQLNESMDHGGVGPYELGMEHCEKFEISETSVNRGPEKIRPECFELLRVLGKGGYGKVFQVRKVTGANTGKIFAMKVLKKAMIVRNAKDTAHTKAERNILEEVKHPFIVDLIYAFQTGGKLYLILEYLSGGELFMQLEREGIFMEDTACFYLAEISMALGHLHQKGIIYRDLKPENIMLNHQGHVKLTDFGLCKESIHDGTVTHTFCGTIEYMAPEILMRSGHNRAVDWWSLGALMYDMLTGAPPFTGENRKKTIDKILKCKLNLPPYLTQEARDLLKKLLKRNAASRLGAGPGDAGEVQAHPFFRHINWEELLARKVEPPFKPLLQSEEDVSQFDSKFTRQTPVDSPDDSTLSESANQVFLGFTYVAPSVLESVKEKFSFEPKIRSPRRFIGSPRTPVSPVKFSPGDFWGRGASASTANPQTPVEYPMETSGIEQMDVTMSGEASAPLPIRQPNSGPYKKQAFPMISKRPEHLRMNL
Procedure, shortened: (§1)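 A single concentration of 1 uM, in DMSO, is applied across the kinase panel. Activity against an individual enzyme is assigned where % control is less than 35.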

[2] = target: T2, scanMAX Kinase assay panel (Homo sapiens, UniProt P53778); settings: p38-gamma; 1 uM; read-out: Percent Control (%)
T2 construct: purchased DiscoverX
T2 sequence (P53778 1-367): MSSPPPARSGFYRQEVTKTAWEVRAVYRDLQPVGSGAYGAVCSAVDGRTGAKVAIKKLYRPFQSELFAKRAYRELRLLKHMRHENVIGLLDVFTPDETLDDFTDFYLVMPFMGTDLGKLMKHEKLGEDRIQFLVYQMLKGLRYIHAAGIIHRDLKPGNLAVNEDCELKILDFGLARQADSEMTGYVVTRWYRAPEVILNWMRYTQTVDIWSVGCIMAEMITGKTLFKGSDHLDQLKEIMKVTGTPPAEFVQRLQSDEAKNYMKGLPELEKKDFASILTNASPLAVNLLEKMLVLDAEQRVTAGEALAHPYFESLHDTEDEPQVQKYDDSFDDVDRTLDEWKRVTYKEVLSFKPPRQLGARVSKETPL
Procedure, shortened: as §1

[3] = target: T3, scanMAX Kinase assay panel (Homo sapiens, UniProt P31751); settings: AKT2; 1 uM; read-out: Percent Control (%)
T3 construct: purchased DiscoverX
T3 sequence (P31751 whole entry): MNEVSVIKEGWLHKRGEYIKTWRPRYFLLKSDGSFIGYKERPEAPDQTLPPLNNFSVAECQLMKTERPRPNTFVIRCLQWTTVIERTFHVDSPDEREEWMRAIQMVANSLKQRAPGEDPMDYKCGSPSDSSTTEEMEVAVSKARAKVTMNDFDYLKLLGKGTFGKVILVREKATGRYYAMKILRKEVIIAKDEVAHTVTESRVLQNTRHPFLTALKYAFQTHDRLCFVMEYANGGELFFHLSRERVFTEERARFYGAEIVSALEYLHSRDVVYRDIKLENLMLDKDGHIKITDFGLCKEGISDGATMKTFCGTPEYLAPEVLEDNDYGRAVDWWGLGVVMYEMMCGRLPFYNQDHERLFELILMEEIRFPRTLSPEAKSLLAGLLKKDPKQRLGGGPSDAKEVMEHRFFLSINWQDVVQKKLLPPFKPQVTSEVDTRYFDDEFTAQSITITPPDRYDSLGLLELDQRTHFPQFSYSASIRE
Procedure, shortened: as §1

[4] = target: T4, scanMAX Kinase assay panel (Homo sapiens, UniProt Q9UKE5); settings: TNIK; 1 uM; read-out: Percent Control (%)
T4 construct: purchased DiscoverX
T4 sequence (Q9UKE5 whole entry): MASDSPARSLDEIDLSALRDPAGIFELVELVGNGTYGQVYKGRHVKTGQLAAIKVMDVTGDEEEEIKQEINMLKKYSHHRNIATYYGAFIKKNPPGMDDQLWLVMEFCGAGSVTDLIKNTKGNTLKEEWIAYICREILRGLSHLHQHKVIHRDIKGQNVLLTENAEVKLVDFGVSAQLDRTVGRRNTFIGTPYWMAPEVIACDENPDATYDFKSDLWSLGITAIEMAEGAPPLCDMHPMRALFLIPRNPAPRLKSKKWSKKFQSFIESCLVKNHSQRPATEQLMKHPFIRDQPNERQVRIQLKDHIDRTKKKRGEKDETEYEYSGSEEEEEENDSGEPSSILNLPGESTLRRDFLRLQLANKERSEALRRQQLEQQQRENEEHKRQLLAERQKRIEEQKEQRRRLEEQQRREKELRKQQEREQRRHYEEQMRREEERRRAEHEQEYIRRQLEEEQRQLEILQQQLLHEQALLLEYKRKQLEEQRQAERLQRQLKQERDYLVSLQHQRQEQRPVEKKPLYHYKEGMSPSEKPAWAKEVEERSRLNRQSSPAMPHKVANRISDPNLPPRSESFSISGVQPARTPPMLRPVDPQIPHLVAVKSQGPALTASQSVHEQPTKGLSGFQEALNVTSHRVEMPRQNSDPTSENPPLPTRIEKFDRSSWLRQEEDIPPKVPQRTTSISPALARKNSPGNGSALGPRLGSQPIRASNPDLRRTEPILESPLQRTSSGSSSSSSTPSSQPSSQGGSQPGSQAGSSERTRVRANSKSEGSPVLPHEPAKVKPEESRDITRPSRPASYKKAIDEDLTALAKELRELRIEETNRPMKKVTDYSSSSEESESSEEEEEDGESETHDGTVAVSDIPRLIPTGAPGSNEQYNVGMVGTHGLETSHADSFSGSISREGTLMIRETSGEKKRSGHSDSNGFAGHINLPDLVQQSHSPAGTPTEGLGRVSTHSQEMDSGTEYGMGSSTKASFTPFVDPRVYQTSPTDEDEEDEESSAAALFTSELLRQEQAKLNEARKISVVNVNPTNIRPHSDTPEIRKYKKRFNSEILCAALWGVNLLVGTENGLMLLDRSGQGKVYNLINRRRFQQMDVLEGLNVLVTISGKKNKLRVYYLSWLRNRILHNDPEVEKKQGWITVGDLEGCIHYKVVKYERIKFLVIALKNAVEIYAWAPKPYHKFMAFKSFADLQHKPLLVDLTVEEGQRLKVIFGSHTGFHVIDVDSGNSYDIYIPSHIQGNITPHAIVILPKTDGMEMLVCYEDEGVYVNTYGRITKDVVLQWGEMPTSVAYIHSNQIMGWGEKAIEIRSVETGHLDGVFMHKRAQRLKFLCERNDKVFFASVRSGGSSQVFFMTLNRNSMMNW
Procedure, shortened: as §1

[5] = target: T5, scanMAX Kinase assay panel (Homo sapiens, UniProt Q96NX5); settings: CAMK1G; 1 uM; read-out: Percent Control (%)
T5 construct: purchased DiscoverX
T5 sequence (Q96NX5 whole entry): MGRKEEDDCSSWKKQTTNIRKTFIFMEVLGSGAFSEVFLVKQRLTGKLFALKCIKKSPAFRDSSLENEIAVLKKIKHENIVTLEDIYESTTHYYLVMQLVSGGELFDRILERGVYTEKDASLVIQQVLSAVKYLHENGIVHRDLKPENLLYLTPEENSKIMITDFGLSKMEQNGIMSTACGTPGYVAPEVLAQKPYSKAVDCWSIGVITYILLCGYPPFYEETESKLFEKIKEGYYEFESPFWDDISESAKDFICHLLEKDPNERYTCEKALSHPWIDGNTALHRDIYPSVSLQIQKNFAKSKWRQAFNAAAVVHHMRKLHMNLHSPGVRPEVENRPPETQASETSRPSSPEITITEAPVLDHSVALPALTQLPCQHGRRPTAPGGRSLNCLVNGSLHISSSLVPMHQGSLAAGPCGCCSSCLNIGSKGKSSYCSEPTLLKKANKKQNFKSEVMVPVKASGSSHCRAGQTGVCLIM
Procedure, shortened: as §1

[6] = target: T6, scanMAX Kinase assay panel (Homo sapiens, UniProt P07949, M918T); settings: RET (M918T); 1 uM; read-out: Percent Control (%)
T6 construct: purchased DiscoverX
T6 sequence (P07949 29-1114 M918T): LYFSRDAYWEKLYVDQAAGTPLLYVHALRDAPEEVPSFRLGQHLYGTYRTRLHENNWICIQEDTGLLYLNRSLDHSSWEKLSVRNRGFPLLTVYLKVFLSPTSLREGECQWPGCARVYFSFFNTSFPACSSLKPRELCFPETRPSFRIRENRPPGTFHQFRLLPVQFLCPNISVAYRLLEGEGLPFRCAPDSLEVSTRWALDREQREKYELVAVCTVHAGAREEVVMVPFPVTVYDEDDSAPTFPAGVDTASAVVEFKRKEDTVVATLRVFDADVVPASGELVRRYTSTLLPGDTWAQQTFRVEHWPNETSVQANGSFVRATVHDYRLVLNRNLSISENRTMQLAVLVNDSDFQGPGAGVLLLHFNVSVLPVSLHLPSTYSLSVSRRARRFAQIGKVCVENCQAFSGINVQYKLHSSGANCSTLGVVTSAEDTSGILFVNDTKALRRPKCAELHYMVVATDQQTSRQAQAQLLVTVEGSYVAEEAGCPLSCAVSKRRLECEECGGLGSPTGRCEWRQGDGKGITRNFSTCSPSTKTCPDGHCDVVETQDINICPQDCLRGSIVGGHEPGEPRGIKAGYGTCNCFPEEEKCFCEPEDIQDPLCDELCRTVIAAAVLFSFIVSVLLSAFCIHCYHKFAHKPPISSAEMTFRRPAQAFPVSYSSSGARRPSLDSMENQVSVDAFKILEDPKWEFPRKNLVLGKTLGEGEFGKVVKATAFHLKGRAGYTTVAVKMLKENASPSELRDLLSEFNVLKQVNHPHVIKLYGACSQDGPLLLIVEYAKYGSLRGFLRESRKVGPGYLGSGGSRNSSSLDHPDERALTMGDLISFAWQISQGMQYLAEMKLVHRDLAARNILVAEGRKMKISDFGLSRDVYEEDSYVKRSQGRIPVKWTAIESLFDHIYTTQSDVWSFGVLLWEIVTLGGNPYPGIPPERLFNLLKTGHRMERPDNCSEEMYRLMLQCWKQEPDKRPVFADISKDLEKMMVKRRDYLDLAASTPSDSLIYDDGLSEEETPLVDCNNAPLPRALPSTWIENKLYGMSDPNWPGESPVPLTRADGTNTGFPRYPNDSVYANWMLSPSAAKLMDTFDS
Procedure, shortened: as §1

[7] = target: T7, scanMAX Kinase assay panel (Homo sapiens, UniProt Q9NRP7); settings: STK36; 1 uM; read-out: Percent Control (%)
T7 construct: purchased DiscoverX
T7 sequence (Q9NRP7 1-1315): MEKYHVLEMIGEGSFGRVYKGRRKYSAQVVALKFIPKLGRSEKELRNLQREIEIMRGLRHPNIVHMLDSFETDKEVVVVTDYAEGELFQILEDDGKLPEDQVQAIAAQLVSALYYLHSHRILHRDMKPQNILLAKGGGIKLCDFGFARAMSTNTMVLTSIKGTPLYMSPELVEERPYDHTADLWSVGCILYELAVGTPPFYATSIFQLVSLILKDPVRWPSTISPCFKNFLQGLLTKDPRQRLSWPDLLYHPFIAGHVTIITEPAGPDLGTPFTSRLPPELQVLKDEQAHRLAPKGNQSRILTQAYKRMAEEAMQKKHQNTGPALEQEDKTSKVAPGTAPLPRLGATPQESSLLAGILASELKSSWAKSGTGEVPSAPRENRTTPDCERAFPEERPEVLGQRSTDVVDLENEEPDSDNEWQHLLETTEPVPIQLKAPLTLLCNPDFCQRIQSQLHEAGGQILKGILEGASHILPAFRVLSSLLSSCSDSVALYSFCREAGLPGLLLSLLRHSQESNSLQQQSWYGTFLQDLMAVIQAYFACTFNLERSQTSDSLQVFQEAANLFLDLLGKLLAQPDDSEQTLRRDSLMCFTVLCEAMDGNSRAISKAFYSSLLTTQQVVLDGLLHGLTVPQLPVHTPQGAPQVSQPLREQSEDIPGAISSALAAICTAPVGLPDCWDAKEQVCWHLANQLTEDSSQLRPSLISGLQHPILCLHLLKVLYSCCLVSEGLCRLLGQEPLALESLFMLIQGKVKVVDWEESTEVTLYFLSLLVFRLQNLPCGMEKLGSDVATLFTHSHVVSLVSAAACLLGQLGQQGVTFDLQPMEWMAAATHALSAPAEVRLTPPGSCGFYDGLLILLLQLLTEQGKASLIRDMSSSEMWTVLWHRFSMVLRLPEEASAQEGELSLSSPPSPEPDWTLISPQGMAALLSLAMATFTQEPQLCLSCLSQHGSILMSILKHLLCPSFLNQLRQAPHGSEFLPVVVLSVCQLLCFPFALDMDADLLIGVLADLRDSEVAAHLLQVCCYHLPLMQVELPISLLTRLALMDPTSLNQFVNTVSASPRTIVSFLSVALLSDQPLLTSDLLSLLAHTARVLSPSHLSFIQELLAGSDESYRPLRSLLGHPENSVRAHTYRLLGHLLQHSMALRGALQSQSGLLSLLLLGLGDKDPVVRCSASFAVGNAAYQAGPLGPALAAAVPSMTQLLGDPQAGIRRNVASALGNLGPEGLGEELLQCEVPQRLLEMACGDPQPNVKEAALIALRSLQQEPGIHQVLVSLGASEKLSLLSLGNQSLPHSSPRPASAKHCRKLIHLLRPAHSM
Procedure, shortened: as §1

[8] = test system: scanMAX Kinase assay panel; settings: 1 uM
Procedure, shortened: as §1

SMILES | remaining binding at 1 µM [1] [%] | remaining binding at 1 µM [2] [%] | remaining binding at 1 µM [3] [%] | remaining binding at 1 µM [4] [%] | remaining binding at 1 µM [5] [%] | remaining binding at 1 µM [6] [%] | remaining binding at 1 µM [7] [%] | Percent Control (%) ([8]; EGFR (L747-E749del, A750P)) | Percent Control (%) ([8]; EGFR (L747-S752del, P753S)) | Percent Control (%) ([8]; EGFR (L747-T751del, Sins)) | Percent Control (%) ([8]; FLT3 (ITD)) | Percent Control (%) ([8]; FLT3 (ITD, D835V)) | Percent Control (%) ([8]; FLT3 (ITD, F691L))
Cc1ccc(C(=O)Nc2ccc(CN3CCN(C)CC3)c(C(F)(F)F)c2)cc1C#Cc1cnc2c(Nc3cnn(C)c3)cccn12 [Example 1, 4-methyl-3-((8-((1-methyl-1H-pyrazol-4-yl)amino)imidazo[1,2-a]pyridin-3-yl)ethynyl)-N-(4-((4-methylpiperazin-1-yl)methyl)-3-(trifluoromethyl)phenyl)benzamide] | 14 | 18 | 37 | 11 | 71 | 0 | 1 | 3 | 1 | 2 | 1 | 20 | 2
Cc1cn(-c2cc(NC(=O)c3ccc(C)c(C#Cc4cnc5c(Nc6cnn(C)c6)cccn45)c3)cc(C(F)(F)F)c2)cn1 [Example 12, 4-methyl-N-(3-(4-methyl-1H-imidazol-1-yl)-5-(trifluoromethyl)phenyl)-3-((8-((1-methyl-1H-pyrazol-4-yl)amino)imidazo[1,2-a]pyridin-3-yl)ethynyl)benzamide] | 100 | 55 | 82 | 17 | 91 | 0 | 89 | 5 | 6 | 6 | 4 | 100 | 45
Cc1ccc(NC(=O)C2(C(=O)Nc3ccc(F)cc3)CC2)cc1C#Cc1cnc2c(Nc3cnn(C(C)C)c3)cccn12 [Example 78] | 100 | 100 | 99 | 88 | 100 | 100 | 100 | 100 | 87 | 100 | 71 | 35 | 31
